Experimental data published in publication PMC11247499, “2,8-Disubstituted-1,5-naphthyridines as Dual Inhibitors of Plasmodium falciparum Phosphatidylinositol-4-kinase and Hemozoin Formation with In Vivo Efficacy” (Journal of Medicinal Chemistry, 2024).
≈ marks a conversion by molar mass, not a printed value. Where “and” joins values, the source holds several entries; their conditions need not be identical. Equal entries are not always repeated. Where two headings read alike, the source gives them in different places.

Columns and labels:
[1] = system: multidrug-resistant strain, K1; assay: Antiplasmodial activity, parasite lactate dehydrogenase assay, K1; assay type: cell-based, Plasmodium falciparum; details: parasite lactate dehydrogenase assay over 72 h, read-out: Pf IC50 ± SD K1
[2] = system: P. falciparum NF54 strain; assay: Antiplasmodial activity, parasite lactate dehydrogenase assay, NF54; assay type: cell-based, Plasmodium falciparum; details: parasite lactate dehydrogenase assay over 72 h, read-out: Pf IC50 ± SD NF54
[3] = system: Chinese Hamster Ovary (CHO) cell line; assay: cells; assay type: cell-based; details: MTT assay over 48h, read-out: CHO IC50
[4] = Solubility, miniaturized shake flask method; details: aqueous solution
PvPI4K = PvPI4K (Plasmodium vivax, UniProt A5KB26); assay: biochemical; details: purified recombinant PvPI4K, 10 μM ATP, ADP-Glo; mean of N ≥ 2; read-out: PvPI4K IC50 ± SD
β-hematin (βH) formation = assay: NP-40 mediated cell-free β-hematin assay; details: read-out: β-hematin IC50
[5] = system: P. falciparum PI4K conditional knockdown line; assay: microbe, parasite or virus in culture; assay type: cell-based, Plasmodium falciparum
[6] = Plasmodium falciparum, K1, 72 h
[7] = Plasmodium falciparum, NF54, 72 h
[8] = cell-free NP-40 detergent-mediated assay, n = 2

PvPI4K, sequence (A5KB26 entry or part of it): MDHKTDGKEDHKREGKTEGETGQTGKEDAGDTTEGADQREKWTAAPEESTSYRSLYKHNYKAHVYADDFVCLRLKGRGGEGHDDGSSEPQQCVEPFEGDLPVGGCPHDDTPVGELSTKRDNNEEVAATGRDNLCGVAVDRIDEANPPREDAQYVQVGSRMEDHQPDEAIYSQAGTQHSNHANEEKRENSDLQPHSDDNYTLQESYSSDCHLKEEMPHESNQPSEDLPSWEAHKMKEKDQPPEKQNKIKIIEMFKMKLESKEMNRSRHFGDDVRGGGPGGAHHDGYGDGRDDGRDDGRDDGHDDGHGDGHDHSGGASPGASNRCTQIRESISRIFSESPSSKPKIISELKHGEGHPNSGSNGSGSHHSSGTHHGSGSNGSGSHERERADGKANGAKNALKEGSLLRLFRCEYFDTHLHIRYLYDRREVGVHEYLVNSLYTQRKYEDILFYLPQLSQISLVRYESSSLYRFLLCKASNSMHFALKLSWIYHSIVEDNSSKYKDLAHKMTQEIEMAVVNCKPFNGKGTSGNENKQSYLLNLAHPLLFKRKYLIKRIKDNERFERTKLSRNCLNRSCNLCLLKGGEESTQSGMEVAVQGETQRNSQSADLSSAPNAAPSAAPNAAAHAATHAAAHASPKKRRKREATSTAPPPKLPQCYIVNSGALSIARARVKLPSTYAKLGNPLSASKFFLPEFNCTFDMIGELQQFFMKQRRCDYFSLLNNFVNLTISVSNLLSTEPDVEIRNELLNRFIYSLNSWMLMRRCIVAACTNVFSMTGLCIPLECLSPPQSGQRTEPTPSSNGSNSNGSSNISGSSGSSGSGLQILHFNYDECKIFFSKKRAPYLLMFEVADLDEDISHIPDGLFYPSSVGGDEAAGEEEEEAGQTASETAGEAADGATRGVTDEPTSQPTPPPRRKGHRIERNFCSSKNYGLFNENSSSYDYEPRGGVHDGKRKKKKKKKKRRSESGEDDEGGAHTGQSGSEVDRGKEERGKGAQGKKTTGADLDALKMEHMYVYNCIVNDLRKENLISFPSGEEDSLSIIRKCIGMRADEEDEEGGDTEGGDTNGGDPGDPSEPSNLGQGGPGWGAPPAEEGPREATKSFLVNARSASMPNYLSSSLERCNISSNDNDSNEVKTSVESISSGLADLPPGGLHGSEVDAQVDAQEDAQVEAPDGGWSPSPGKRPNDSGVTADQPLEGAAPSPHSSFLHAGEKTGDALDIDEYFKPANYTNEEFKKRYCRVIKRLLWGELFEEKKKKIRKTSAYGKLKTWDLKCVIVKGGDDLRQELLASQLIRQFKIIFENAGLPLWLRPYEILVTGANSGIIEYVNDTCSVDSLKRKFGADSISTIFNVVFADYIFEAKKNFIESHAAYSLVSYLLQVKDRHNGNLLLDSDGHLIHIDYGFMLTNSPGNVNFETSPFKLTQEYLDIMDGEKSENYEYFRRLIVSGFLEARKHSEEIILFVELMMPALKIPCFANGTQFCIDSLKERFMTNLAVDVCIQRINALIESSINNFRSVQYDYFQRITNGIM

Row | Molecule | IC50 [1, 6] | IC50 [2, 7] | IC50 ([3]; Cricetulus griseus, CHO) | solubility at 20 h [4] | IC50 (PvPI4K) | IC50 (β-hematin (βH) formation; [8]) | also measured
1 | Cc1nc(C(F)(F)F)ccc1-c1ccc2nccc(NC3CCN(C)CC3)c2n1 [Compound 31, N-(1-Methylpiperidin-4-yl)-6-[2-methyl-6-(trifluoromethyl)pyridin-3-yl]-1,5-naphthyridin-4-amine] | 367 ± 5 nM | 499 ± 24 nM | > 50000 nM | 195 µM (≈ 78.3 µg/mL) | 174 ± 102 nM | – | –
2 | FC(F)(F)c1ccc(-c2ccc3nccc(OC4CCNCC4)c3n2)cn1 [Compound 19, 8-Piperidin-4-yloxy-2-[6-(trifluoromethyl)pyridin-3-yl]-1,5-naphthyridine] | – | 3850 ± 954 nM | – | – | 265 ± 160 nM | 94000 ± 3000 nM | –
3 | CN1CCC(Nc2ccnc3ccc(-c4cccnc4C(F)(F)F)nc23)CC1 [Compound 30, N-(1-Methylpiperidin-4-yl)-6-[2-(trifluoromethyl)pyridin-3-yl]-1,5-naphthyridin-4-amine] | 300 ± 11 nM | 270 ± 96 nM | > 50000 nM | 200 µM (≈ 77.5 µg/mL) | 170 ± 38 nM | 75000 ± 6000 nM | –
4 | CS(=O)(=O)c1cccc(-c2ccc3nccc(N4CC[C@@H](N)C4)c3n2)c1 [Compound 9, (3R)-1-[6-(3-Methylsulfonylphenyl)-1,5-naphthyridin-4-yl]pyrrolidin-3-amine] | – | 100 ± 5 nM | 22000 nM | 200 µM (≈ 73.7 µg/mL) | 199 ± 37 nM | – | –
5 | FC(F)(F)c1ccc(-c2ccc3nccc(N[C@H]4CCNC4)c3n2)cn1 [Compound 15, N-[(3S)-Pyrrolidin-3-yl]-6-[6-(trifluoromethyl)pyridin-3-yl]-1,5-naphthyridin-4-amine] | – | 70 ± 13 nM | 46000 nM | 200 µM (≈ 71.9 µg/mL) | 164 ± 69 nM | – | –
6 | CC1CNCCC1Nc1ccnc2ccc(-c3ccc(C(F)(F)F)nc3)nc12 (centres unmarked) [Compound 24, N-(3-Methylpiperidin-4-yl)-6-[6-(trifluoromethyl)pyridin-3-yl]-1,5-naphthyridin-4-amine] | 104 ± 9 nM | 50 ± 25 nM | 47000 nM | 195 µM (≈ 75.5 µg/mL) | 131 ± 89 nM | – | –
7 | CN1CCC(Nc2cc(N)nc3ccc(-c4ccc(C(F)(F)F)nc4)nc23)CC1 [Compound 36, 4-N-(1-Methylpiperidin-4-yl)-6-[6-(trifluoromethyl)pyridin-3-yl]-1,5-naphthyridine-2,4-diamine] | 192 ± 7 nM | 40 ± 11 nM | 26000 nM | 180 µM (≈ 72.4 µg/mL) | 9400 ± 849 nM | 35000 nM and < 60000 nM | –
8 | CS(=O)(=O)c1ccc(-c2cnc(N)c(-c3ccc(C(F)(F)F)nc3)c2)cc1 [MMV390048, reference compound] | – | 36 nM | – | – | – | – | IC50 ([5]; Plasmodium falciparum, 72 h, read-out: ABS IC50 for PfPI4K cKD, N=1, +aTc, experiment N=1, +aTc (500 nM, control conditions), 72 hours): 31 nM; IC50 ([5]; Plasmodium falciparum, 72 h, read-out: ABS IC50 for PfPI4K cKD, N=1, no aTc, experiment N=1, no aTc (PI4K knockdown), 72 hours): 4 nM; IC50 ([5]; Plasmodium falciparum, 72 h, read-out: ABS IC50 for PfPI4K cKD, N=2, +aTc, experiment N=2, +aTc (500 nM, control conditions), 72 hours): 29 nM; IC50 ([5]; Plasmodium falciparum, 72 h, read-out: ABS IC50 for PfPI4K cKD, N=2, no aTc, experiment N=2, no aTc (PI4K knockdown), 72 hours): 4.31 nM; IC50 ([5]; Plasmodium falciparum, 72 h, read-out: ABS IC50 for PfPI4K cKD, N=3, +aTc, experiment N=3, +aTc (500 nM, control conditions), 72 hours): 25 nM; IC50 ([5]; Plasmodium falciparum, 72 h, read-out: ABS IC50 for PfPI4K cKD, N=3, no aTc, experiment N=3, no aTc (PI4K knockdown), 72 hours): 3.48 nM; IC50 ([5]; Plasmodium falciparum, read-out: ABS IC50 for PfPI4K cKD, Mean + SD, +aTc, mean of N=3, +aTc (control conditions)): 26 ± 3 nM; IC50 ([5]; Plasmodium falciparum, read-out: ABS IC50 for PfPI4K cKD, Mean + SD, no aTc, mean of N=3, no aTc (PI4K knockdown)): 3.7 ± 0.4 nM; IC50 ([5]; read-out: ABS IC50 for PfPI4K cKD, N=1, +aTc, experiment N=1, +aTc (500 nM, control conditions), 72 hours): 27 nM; IC50 ([5]; read-out: ABS IC50 for PfPI4K cKD, N=2, +aTc, experiment N=2, +aTc (500 nM, control conditions), 72 hours): 21 nM; IC50 ([5]; read-out: ABS IC50 for PfPI4K cKD, N=2, no aTc, experiment N=2, no aTc (PI4K knockdown), 72 hours): 3.39 nM; IC50 ([5]; read-out: ABS IC50 for PfPI4K cKD, N=3, +aTc, experiment N=3, +aTc (500 nM, control conditions), 72 hours): 23 nM; IC50 ([5]; read-out: ABS IC50 for PfPI4K cKD, N=3, no aTc, experiment N=3, no aTc (PI4K knockdown), 72 hours): 3.31 nM
9 | CS(=O)(=O)c1cccc(-c2ccc3nccc(N4CC[C@@H](NC(N)=O)C4)c3n2)c1 [Compound 11, [(3R)-1-[6-(3-Methylsulfonylphenyl)-1,5-naphthyridin-4-yl]pyrrolidin-3-yl]urea] | – | 630 ± 133 nM | – | – | 39 ± 7 nM | – | –
10 | CN1CCC(Nc2ccnc3ccc(-c4cccnc4)nc23)CC1 [Compound 29, N-(1-Methylpiperidin-4-yl)-6-pyridin-3-yl-1,5-naphthyridin-4-amine] | 1280 ± 148 nM | 526 ± 47 nM | > 50000 nM | 195 µM (≈ 62.3 µg/mL) | 64 ± 14 nM | – | –
11 | NC1CCN(c2ccnc3ccc(-c4ccc(C(F)(F)F)nc4)nc23)CC1 [Compound 18, 1-[6-[6-(Trifluoromethyl)pyridin-3-yl]-1,5-naphthyridin-4-yl]piperidin-4-amine] | 477 ± 34 nM | 420 ± 87 nM | > 50000 nM | 160 µM (≈ 59.7 µg/mL) | 559 ± 30 nM | 137000 ± 4000 nM | –
12 | CC(=O)N[C@@H]1CCN(c2ccnc3ccc(-c4cccc(S(C)(=O)=O)c4)nc23)C1 [Compound 10, N-[(3R)-1-[6-(3-Methylsulfonylphenyl)-1,5-naphthyridin-4-yl]pyrrolidin-3-yl]acetamide] | – | 890 ± 57 nM | – | 185 µM (≈ 75.9 µg/mL) | 76 ± 6 nM | – | –
13 | OCCN1CCC(Nc2ccnc3ccc(-c4ccc(C(F)(F)F)nc4)nc23)CC1 [Compound 22, 2-[4-[[6-[6-(Trifluoromethyl)pyridin-3-yl]-1,5-naphthyridin-4-yl]amino]piperidin-1-yl]ethanol] | 385 ± 41 nM | 253 ± 2 nM | – | 145 µM (≈ 60.5 µg/mL) | 303 ± 74 nM | – | –
14 | CN1CCC(Nc2cc(=O)[nH]c3ccc(-c4ccc(C(F)(F)F)nc4)nc23)CC1 [Compound 37, 4-[(1-Methylpiperidin-4-yl)amino]-6-[6-(trifluoromethyl)pyridin-3-yl]-1H-1,5-naphthyridin-2-one] | – | 4200 ± 1000 nM | – | 45 µM (≈ 18.2 µg/mL) | > 10000 nM | – | –
15 | CS(=O)(=O)c1cccc(-c2ccc3nccc(NC4CCCNC4)c3n2)c1 (centres unmarked) [Compound 8, 6-(3-Methylsulfonylphenyl)-N-piperidin-3-yl-1,5-naphthyridin-4-amine] | – | 200 ± 2 nM | 33300 nM | 195 µM (≈ 74.6 µg/mL) | 151 ± 72 nM | > 500000 nM | –
16 | CCN(CC)CCCC(C)Nc1ccnc2cc(Cl)ccc12 (centres unmarked) [Chloroquine, reference compound] | – | – | – | – | – | – | IC50 (β-hematin (βH) formation): 21000 ± 2100 nM
17 | CN1CCC(Nc2ccnc3ccc(-c4ccc(C#N)nc4)nc23)CC1 [Compound 32, 5-[8-[(1-Methylpiperidin-4-yl)amino]-1,5-naphthyridin-2-yl]pyridine-2-carbonitrile] | 730 ± 53 nM | 160 ± 40 nM | > 50000 nM | 200 µM (≈ 68.9 µg/mL) | 676 ± 23 nM | 51000 ± 2000 nM | –
18 | N[C@@H]1CCN(c2ccnc3ccc(-c4ccc(C(F)(F)F)nc4)nc23)C1 [Compound 13, (3R)-1-[6-[6-(Trifluoromethyl)pyridin-3-yl]-1,5-naphthyridin-4-yl]pyrrolidin-3-amine] | 110 ± 13 nM | 60 ± 8 nM | 20000 nM | 135 µM (≈ 48.5 µg/mL) | 1200 ± 481 nM | – | –
19 | CNC(=O)c1ccc(-c2ccc3nccc(NC4CCN(C)CC4)c3n2)cn1 [Compound 33, N-Methyl-5-[8-[(1-methylpiperidin-4-yl)amino]-1,5-naphthyridin-2-yl]pyridine-2-carboxamide] | > 6000 nM | 400 ± 1 nM | 25000 nM | – | 77 ± 48 nM | 131000 ± 6000 nM | –
20 | (R)-6-(6-Methoxypyridin-3-yl)-N-(pyrrolidin-3-yl)-1,5-naphthyridin-4-amine [Compound 34] | – | – | – | – | 111 ± 69 nM | – | IC50 [1]: 667 ± 60 nM; IC50 [2]: 225 ± 7 nM; IC50 [3]: 17000 nM
21 | FC(F)(F)c1ccc(-c2ccc3nccc(NC4CCCNC4)c3n2)cn1 (centres unmarked) [Compound 12, N-Piperidin-3-yl-6-[6-(trifluoromethyl)pyridin-3-yl]-1,5-naphthyridin-4-amine] | – | 90 ± 1 nM | 43000 nM | 195 µM (≈ 72.8 µg/mL) | 276 ± 33 nM | 66000 ± 1000 nM | –
22 | CN1CCC(Nc2ccnc3ccc(-c4ccc(OCCCO)nc4)nc23)CC1 [Compound 35, 3-[5-[8-[(1-Methylpiperidin-4-yl)amino]-1,5-naphthyridin-2-yl]pyridin-2-yl]oxypropan-1-ol] | 462 ± 52 nM | 203 ± 6 nM | > 50000 nM | 200 µM (≈ 78.7 µg/mL) | 19 ± 12 nM | > 200000 nM | –
23 | FC(F)(F)c1ccc(-c2ccc3nccc(NCC4CCNCC4)c3n2)cn1 [Compound 20, N-(Piperidin-4-ylmethyl)-6-[6-(trifluoromethyl)pyridin-3-yl]-1,5-naphthyridin-4-amine] | 350 ± 4 nM | 65 ± 2 nM | > 50000 nM | 190 µM (≈ 73.6 µg/mL) | 1510 ± 643 nM | 37000 nM and < 60000 nM | –
